# Source: paper PMC4700278, “Molecular and Biochemical Analysis of the Estrogenic and Proliferative Properties of Vitamin E Compounds” (Frontiers in Oncology, 2016)
# Assays:
# [1] = system: PR; assay: Quantitative RT-PCR of endogenous E2-regulated gene in MCF-7 cells; type: cell-based, human; conditions: 500 μM, 16 h
# Method: (§1) Figure 3 Measurement of estrogenicity of tocols in vitro. (A) Dose–response curve of the effect of tocols on MCF-7 cells stably transfected with the ERE-β-globin-tk-Luc plasmid (MELN cells). […] Data shown are the mean values ± SEM from three independent experiments. (C) δ-TP or δ-TT stabilized ER-α in MCF-7 cells. […] MCF-7 extracts were analyzed for the presence of ERα by western blotting using GAPDH as a control. […] The western blot shown is representative of three independent experiments. […] (D) Effect of δ-tocols on estrogen response element-dependent luciferase activity in HELN cells, which are HELA cells transfected with either fully functional ERα or ERβ or their mutated versions containing a deletion the AB domain (ΔAB). […] Data shown are the mean values ± SEM from three independent experiments. (E) δ-Tocols modulate the induction of endogenous genes under the control of ER. […] Cells were treated with 500 μM δ-tocols in the presence or in the absence of ICI. The relative expression of TGFα, PR, and Ps2 (TFF1) after 16 h was analyzed by quantitative RT-PCR. Data shown are the mean values ± SEM from three independent experiments.
# [2] = system: TGFα; assay: as above; type: cell-based, human; conditions: 500 μM, 16 h
# Method: as §1
# [3] = system: Ps2 (TFF1); assay: as above; type: cell-based, human; conditions: 500 μM, 16 h
# Method: as §1
# [4] = target: T1, ERβ (Homo sapiens, UniProt Q92731); assay: Estrogen receptor-binding assay, competition with [3H]-17β-estradiol; design: expressed in transfected cells; host or cells: Cos-7; conditions: extracts of cos-7 cells expressing human ERβ; 2 nM [3H]-E2; tocols 1 μM to 1 mM; N.M. = not measurable
# [5] = target: T1, ERβ; conditions: HELN-ERβ cells; 500 μM
# Text: MELN cells were established by transfecting ER(+) MCF-7 cells with the ERE-β-globin-tk-Luc-SV-Neo plasmid ([36]). HELN cells were generated by transfection of ER(−) HeLa cells with this plasmid. The HELN-ERα, HELN-ERβ, HELN-ΔAB-ERα, and HELN-ΔAB-ERβ cell lines then underwent a second transfection with the corresponding pSG5-puro plasmids (pSG5-ERα-puro, pSG5-ERβ-puro, pSG5-ΔAB-ERα-puro, and pSG5-ΔAB-ERβ-puro, respectively) and expressed wild-type or mutated ERα or ERβ ([39], [40]). […] Luciferase activity was measured using the luciferase assay reagent (Promega), according to the manufacturer’s instructions. Protein concentrations were measured using the Bradford technique ([41]) to normalize the luciferase activity data. For each condition, average luciferase activity was calculated from the data of three independent wells.
# Figure 3 Measurement of estrogenicity of tocols in vitro. […] MCF-7 extracts were analyzed for the presence of ERα by western blotting using GAPDH as a control. […] The ratio of ERα to GAPDH levels in each experiment was determined densitometrically and normalized to control value (taken to be 1). […] The relative expression of TGFα, PR, and Ps2 (TFF1) after 16 h was analyzed by quantitative RT-PCR. […]
# T1 sequence (Q92731 whole entry): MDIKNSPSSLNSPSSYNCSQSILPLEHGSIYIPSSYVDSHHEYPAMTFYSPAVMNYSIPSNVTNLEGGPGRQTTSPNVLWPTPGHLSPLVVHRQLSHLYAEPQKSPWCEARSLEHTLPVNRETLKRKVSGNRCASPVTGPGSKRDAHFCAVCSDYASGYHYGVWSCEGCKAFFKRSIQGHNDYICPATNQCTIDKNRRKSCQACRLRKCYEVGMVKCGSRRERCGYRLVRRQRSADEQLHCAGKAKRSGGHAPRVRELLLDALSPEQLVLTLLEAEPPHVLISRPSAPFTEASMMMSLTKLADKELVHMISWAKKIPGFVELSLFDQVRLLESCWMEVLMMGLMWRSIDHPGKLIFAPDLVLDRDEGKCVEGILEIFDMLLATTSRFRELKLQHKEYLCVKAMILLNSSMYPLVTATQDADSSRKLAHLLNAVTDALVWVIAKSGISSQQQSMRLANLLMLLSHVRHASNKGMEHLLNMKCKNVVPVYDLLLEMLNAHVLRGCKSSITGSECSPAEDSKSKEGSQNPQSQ
compound,measurement,setting,value
"CC(C)=CCC/C(C)=C/CC/C(C)=C/CC[C@]1(C)CCc2cc(O)cc(C)c2O1 [δ-TT, δ-tocotrienol]",transcription of PR (fold increase),[1],1.6 fold
same,transcription of TGFα (fold increase),[2],1.1 fold
same,transcription of Ps2 (fold increase),[3],twofold
same,IC50,[4],91 ± 7 µM
same,ER-dependent luciferase activity through ERβ,[5],activate ER-dependent luciferase activity
